System: lactobacillus
Test: Liquid culture of lactobacillus
Type: cell-based

For `CC(=O)N[C@H]1C(O)O[C@H](CO)[C@@H](O)[C@@H]1O` (stereo partly drawn) [N-acetyl-D-glucosamine], the growth of lactobacillus was “could promote the growth of lactobacillus”.

From patent US7704976B2, “Use of N-acetyl-D-glucosamine for preparing medicines for urogenital tract infection's treatment and prevention” (Third Military Medical University, Chinese People's …, priority 2002, dated 2010)
